From ChEMBL document CHEMBL1909046, “DrugMatrix in vitro pharmacology data”

Legend:
[1] = target: T1, Alpha-2A adrenergic receptor (Homo sapiens, UniProt P08913); type: cell membranes, Sf9, Membrane; conditions: for Ki: read-out: Ki; as to all read-outs here: in other assays of this panel Not Active means under 50% inhibition at 10 µM
T1 sequence (P08913 whole entry): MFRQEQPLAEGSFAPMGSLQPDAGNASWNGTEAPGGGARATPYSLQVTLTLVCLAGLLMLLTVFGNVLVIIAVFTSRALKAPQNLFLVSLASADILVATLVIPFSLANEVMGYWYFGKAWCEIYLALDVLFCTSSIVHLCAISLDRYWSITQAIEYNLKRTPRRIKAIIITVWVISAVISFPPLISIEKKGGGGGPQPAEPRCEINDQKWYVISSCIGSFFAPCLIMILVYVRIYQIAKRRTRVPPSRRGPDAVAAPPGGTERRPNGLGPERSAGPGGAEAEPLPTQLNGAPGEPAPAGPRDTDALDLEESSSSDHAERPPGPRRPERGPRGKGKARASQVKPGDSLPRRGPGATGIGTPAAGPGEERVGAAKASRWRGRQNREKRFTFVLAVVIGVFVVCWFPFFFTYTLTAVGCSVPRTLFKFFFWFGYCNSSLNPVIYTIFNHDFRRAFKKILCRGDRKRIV

[2] = target: T2, Type-2 angiotensin II receptor (Homo sapiens, UniProt P50052); type: cell-based; conditions: cho-k1; also: in other assays of this panel Not Active means under 50% inhibition at 10 µM
T2 sequence (P50052 whole entry): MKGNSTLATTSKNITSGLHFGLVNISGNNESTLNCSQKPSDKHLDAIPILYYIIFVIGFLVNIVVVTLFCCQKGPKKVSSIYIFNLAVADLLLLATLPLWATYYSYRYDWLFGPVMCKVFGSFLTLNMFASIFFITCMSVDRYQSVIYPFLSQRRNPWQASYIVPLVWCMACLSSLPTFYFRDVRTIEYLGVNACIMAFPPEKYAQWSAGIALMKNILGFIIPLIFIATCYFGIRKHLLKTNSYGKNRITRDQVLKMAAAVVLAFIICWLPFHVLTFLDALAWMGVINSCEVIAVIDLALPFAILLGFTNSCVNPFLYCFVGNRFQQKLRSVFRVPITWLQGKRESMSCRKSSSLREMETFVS

[3] = DRUGMATRIX: Sodium/nucleoside co-transporter radioligand binding (ligand: nitrobenzylthioinosine); type: cell membranes, Cavia porcellus, Dunkin-Hartley, Cerebral cortex, Membrane; conditions: Not Active = under 50% inhibition at 10 µM
Vasopressin V1a receptor = Vasopressin V1a receptor (Homo sapiens, UniProt P37288); type: cell membranes, Membrane; conditions: hek293; also: in other assays of this panel Not Active means under 50% inhibition at 10 µM
Sequence of Vasopressin V1a receptor (P37288 whole entry): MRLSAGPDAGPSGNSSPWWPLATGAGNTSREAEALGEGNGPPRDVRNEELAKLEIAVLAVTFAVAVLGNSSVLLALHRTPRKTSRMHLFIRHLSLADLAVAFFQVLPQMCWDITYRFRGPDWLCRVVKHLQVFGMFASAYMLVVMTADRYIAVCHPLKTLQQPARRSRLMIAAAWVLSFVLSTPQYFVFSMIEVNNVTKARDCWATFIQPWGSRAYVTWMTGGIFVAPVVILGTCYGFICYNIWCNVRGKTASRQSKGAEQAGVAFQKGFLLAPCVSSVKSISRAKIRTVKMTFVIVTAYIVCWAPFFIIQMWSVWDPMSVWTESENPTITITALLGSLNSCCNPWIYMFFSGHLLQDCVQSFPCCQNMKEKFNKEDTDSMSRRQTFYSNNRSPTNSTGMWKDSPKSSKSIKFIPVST

Mu-type opioid receptor = Mu-type opioid receptor (Homo sapiens, UniProt P35372); assay: DRUGMATRIX: Opiate mu (OP3, MOP) radioligand binding (ligand: [3H] Diprenorphine); type: cell membranes, CHO-K1, Membrane; conditions: cho-k1; Not Active = under 50% inhibition at 10 µM
Sequence of Mu-type opioid receptor (P35372 whole entry): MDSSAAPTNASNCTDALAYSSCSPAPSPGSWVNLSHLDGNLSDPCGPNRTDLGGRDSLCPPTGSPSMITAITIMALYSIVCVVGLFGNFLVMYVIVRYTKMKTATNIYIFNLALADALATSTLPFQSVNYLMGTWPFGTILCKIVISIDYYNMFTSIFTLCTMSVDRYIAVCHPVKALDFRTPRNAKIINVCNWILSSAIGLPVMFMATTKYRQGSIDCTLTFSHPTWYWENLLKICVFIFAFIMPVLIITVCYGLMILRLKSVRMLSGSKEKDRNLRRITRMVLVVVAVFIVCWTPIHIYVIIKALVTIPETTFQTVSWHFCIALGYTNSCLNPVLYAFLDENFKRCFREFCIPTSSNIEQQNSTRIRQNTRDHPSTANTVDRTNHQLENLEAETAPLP

Cytochrome P450 2C9 = Cytochrome P450 2C9 (Homo sapiens, UniProt P11712); conditions: bti-tn-5b1-4; also: in other assays of this panel Not Active means under 50% inhibition at 10 µM
Sequence of Cytochrome P450 2C9 (P11712 whole entry): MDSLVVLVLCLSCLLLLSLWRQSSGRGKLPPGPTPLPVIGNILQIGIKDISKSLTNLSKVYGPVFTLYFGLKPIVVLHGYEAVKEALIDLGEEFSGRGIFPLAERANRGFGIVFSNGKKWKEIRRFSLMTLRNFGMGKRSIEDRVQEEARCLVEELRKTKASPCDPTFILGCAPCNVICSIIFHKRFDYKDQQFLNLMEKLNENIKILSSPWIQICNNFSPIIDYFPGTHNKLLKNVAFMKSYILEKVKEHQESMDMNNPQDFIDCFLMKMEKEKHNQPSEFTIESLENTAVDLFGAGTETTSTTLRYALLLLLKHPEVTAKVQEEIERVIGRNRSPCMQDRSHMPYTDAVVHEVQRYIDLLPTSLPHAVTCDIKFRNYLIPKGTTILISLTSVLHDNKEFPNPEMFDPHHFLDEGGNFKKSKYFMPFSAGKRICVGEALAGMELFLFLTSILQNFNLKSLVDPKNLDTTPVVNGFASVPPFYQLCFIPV

SMILES	IC50 ([1]; sf9)	IC50 [2]	IC50 [3]	Ki [3]	IC50 (Vasopressin V1a receptor)	IC50 (Mu-type opioid receptor)	IC50 (Cytochrome P450 2C9)	Ki (Cytochrome P450 2C9)	IC50 ([1]; read-out: IC50) [nM]	Ki [1] [nM]
C[C@]12CCC(=O)C[C@@H]1CC[C@@H]1[C@@H]2CC[C@]2(C)[C@@H](O)CC[C@@H]12 [STANOLONE]	Not Active	Not Active	Not Active	Not Active	Not Active	Not Active	Not Active	Not Active	–	–
Cc1cccc(C)c1NC(=O)C(C)N (stereo not given) [TOCAINIDE]	Not Active	Not Active	Not Active	Not Active	Not Active	Not Active	Not Active	Not Active	–	–
CS(=O)(=O)c1ccc(C2=C(c3ccccc3)C(=O)OC2)cc1 [ROFECOXIB]	Not Active	Not Active	Not Active	Not Active	Not Active	Not Active	Not Active	Not Active	–	–
COC(=O)Nc1nc2ccc(C(=O)c3ccccc3)cc2[nH]1 [MEBENDAZOLE]	Not Active	Not Active	Not Active	Not Active	Not Active	Not Active	Not Active	Not Active	–	–
CC(O)C(=O)O (stereo not given) [LACTIC ACID]	Not Active	Not Active	Not Active	Not Active	Not Active	Not Active	Not Active	Not Active	–	–
CC(N)C12CC3CC(CC(C3)C1)C2 (stereo not given) [RIMANTADINE]	Not Active	Not Active	Not Active	Not Active	Not Active	Not Active	Not Active	Not Active	–	–
CO[C@@H]1[C@@H](OC)[C@H](C)[C@@](O)(CC(=O)O)O[C@H]1[C@H](C)[C@H]1O[C@@]2(CC[C@@](C)([C@H]3CC[C@@](C)([C@@H]4O[C@@H]([C@H]5O[C@](C)(O)[C@H](C)C[C@@H]5C)C[C@@H]4O[C@@H]4C[C@H](OC)[C@@H](OC)[C@H](C)O4)O3)O2)C[C@H](O)[C@H]1C.N [MADURAMICIN]	Not Active	Not Active	Not Active	Not Active	Not Active	Not Active	Not Active	Not Active	–	–
CC(C)(C)NC[C@H](O)COc1cccc2c1CCCC2=O [LEVOBUNOLOL]	Not Active	Not Active	Not Active	Not Active	Not Active	Not Active	Not Active	Not Active	–	–
Cc1[nH]c(=O)c(C#N)cc1-c1ccncc1 [MILRINONE]	Not Active	Not Active	Not Active	Not Active	Not Active	Not Active	Not Active	Not Active	–	–
Cc1cnc(NC(=O)C2=C(O)c3ccccc3S(=O)(=O)N2C)s1 [MELOXICAM]	Not Active	Not Active	Not Active	Not Active	Not Active	Not Active	Not Active	Not Active	–	–
CO[C@@]12[C@H](COC(N)=O)C3=C(C(=O)C(C)=C(N)C3=O)N1C[C@@H]1N[C@@H]12 [MITOMYCIN]	Not Active	Not Active	Not Active	Not Active	Not Active	Not Active	Not Active	Not Active	–	–
Cc1ccc(Cl)c(Nc2ccccc2C(=O)O)c1Cl [MECLOFENAMIC ACID]	Not Active	Not Active	Not Active	Not Active	Not Active	Not Active	Not Active	Not Active	–	–
O=C(O)c1cc(/N=N/c2ccc(S(=O)(=O)Nc3ccccn3)cc2)ccc1O [SULFASALAZINE]	Not Active	Not Active	Not Active	Not Active	Not Active	Not Active	Not Active	Not Active	–	–
CC(=O)O[C@]1(C(C)=O)CC[C@H]2[C@@H]3C[C@H](C)C4=CC(=O)CC[C@]4(C)[C@H]3CC[C@@]21C [MEDROXYPROGESTERONE ACETATE]	Not Active	Not Active	Not Active	Not Active	Not Active	Not Active	Not Active	Not Active	–	–
CC[C@H](C)C(=O)O[C@H]1CCC=C2C=C[C@H](C)[C@H](CC[C@@H]3C[C@@H](O)CC(=O)O3)[C@H]21 [MEVASTATIN]	Not Active	Not Active	Not Active	Not Active	Not Active	Not Active	Not Active	Not Active	–	–
CCN(CC)CCNC(=O)c1cc(Cl)c(N)cc1OC [METOCLOPRAMIDE]	–	Not Active	Not Active	Not Active	Not Active	Not Active	Not Active	Not Active	2720	1020
Cc1nnc(NS(=O)(=O)c2ccc(N)cc2)s1 [SULFAMETHIZOLE]	Not Active	Not Active	Not Active	Not Active	Not Active	Not Active	Not Active	Not Active	–	–
CC[C@H](C)[C@@H](CO[C@@H](Cc1ccccc1)C(=O)N[C@@H](CCS(C)(=O)=O)C(=O)OC(C)C)NC[C@@H](N)CS	–	Not Active	Not Active	Not Active	Not Active	Not Active	Not Active	Not Active	432	162
OC[C@@H](O)[C@@H](O)[C@H](O)[C@H](O)CO [MANNITOL]	Not Active	Not Active	Not Active	Not Active	Not Active	Not Active	Not Active	Not Active	–	–
Cc1cn([C@H]2C=C[C@@H](CO)O2)c(=O)[nH]c1=O [STAVUDINE]	Not Active	Not Active	Not Active	Not Active	Not Active	Not Active	Not Active	Not Active	–	–
CC1=C(/C=C/C(C)=C/C=C/C(C)=C/C(=O)O)C(C)(C)CCC1 [TRETINOIN]	Not Active	Not Active	Not Active	Not Active	Not Active	Not Active	Not Active	Not Active	–	–
